Assay results: the NIST ThermoML archive (doi:10.1016/j.fluid.2012.01.018)
Numbers after ± are expanded uncertainties.

Details: 101.33 kPa, Liquid, Falling or rolling sphere viscometry

Row | Structure (SMILES) | viscosity (298.15 K) | viscosity (308.15 K) | viscosity (318.15 K) | viscosity (328.15 K) | viscosity (338.15 K) | viscosity (348.15 K)
1 | COCC[N+]1(C)CCCCC1.O=S(=O)([N-]S(=O)(=O)C(F)(F)F)C(F)(F)F | 102.6 ± 3.1 mPa·s | 63.22 ± 1.4 mPa·s | 41.92 ± 0.91 mPa·s | 29.43 ± 0.64 mPa·s | 21.53 ± 0.46 mPa·s | 16.32 ± 0.35 mPa·s
2 | COCC[N+]1(C)CCOCC1.O=S(=O)([N-]S(=O)(=O)C(F)(F)F)C(F)(F)F | 306.1 ± 19 mPa·s | 155.9 ± 6.4 mPa·s | 90.68 ± 2.5 mPa·s | 57.23 ± 1.2 mPa·s | 38.69 ± 0.84 mPa·s | 27.54 ± 0.6 mPa·s
3 | COCC[N+]1(C)CCCC1.O=S(=O)([N-]S(=O)(=O)C(F)(F)F)C(F)(F)F | 54.52 ± 1.1 mPa·s | 36.94 ± 0.8 mPa·s | 26.41 ± 0.57 mPa·s | 18.23 ± 0.39 mPa·s | 14.06 ± 0.3 mPa·s | 11.07 ± 0.24 mPa·s
